The nature of data set [1]: Molar enthalpy of transition or fusion. The note with it: Crystal; Adiabatic calorimetry.
For data set [2] the following is noted: Crystal; Adiabatic calorimetry.

Numbers after ± are expanded uncertainties.

Consider `[2H]O[2H]` [water-d2], for which, in data set [1], the “Molar enthalpy of transition or fusion” value came to 1.47 ± 0.0225 kcal/mol. In addition, the Normal melting temperature in data set [2] stood at 3.68 ± 0.05 °C.

These data come from the NIST ThermoML archive (doi:10.1016/j.jct.2005.09.005).
